Laboratory results published in patent publication US9006228B2 (Merck Sharp & Dohme Corp., priority 2011, dated 2015).

Biological target: T1, human GPR119 (Homo sapiens, UniProt Q8TDV5)
T1 sequence (Q8TDV5 1-308 limits assumed): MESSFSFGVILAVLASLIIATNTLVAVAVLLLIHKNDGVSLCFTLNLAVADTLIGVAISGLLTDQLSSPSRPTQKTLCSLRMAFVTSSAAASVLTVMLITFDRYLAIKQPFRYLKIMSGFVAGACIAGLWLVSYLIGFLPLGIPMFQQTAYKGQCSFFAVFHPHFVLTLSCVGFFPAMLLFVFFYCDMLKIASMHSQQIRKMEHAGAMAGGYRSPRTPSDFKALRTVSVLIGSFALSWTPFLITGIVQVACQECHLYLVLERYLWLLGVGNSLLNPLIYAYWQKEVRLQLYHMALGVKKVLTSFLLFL
Test: Measurement of GPR119 signaling (cAMP assay; LANCE kit or HTRF) in HEK293 cells stably transfected with human GPR119
Format: cell-based
Conditions: agonist-stimulated cAMP in HEK293 cells expressing human GPR119
Protocol: Measurement of GPR119 Signaling Using LANCE 384-Well cAMP Kit
The adenylate cyclase assay was constructed following the LANCE™ cAMP Kit (Perkin Elmer, AD0264) instructions. […] The reaction was stopped by incubating with the supplied detection buffer containing the europium chelate of the Eu-SA/Biotin-cAMP tracer for 3 hours. The assay was performed in duplicate in a 384 well plate for duplicate plates. Fluorescence at 665 nm was measured using a PHERAstar instrument. Basal activity was determined using a DMSO control and maximum response was defined as cAMP stimulation produced by an internal agonist control. Standard cAMP concentrations were assayed concurrently for conversion of fluorescence signal to cAMP level. The data was analyzed using 4-parameter curve fit in Microsoft Excel.
Measurement of GPR119 Signaling Using a Cyclic AMP (cAMP) Homogenous Time Resolved Fluorescence (HTRF) Assay
Chinese hamster ovary (CHO) cell lines stably transfected with the permissive guanine nucleotide binding protein alpha 15 (Gα15) and murine GPR119 were maintained in DMEM media containing FBS, penicillin-streptomycin, puromycin, and G418 (geneticin). […] Agonist activation of the GPR119 receptor was measured in receptor transfected cells described above, treated with compounds of this invention, using a commercial homogenous time resolved fluorescence (HTRF) kit for measurement of cAMP (CisBio, Bedford, Mass.). The assay was performed in 96-well half-volume plates (murine) or 384-well plates (human) following the manufacturers instructions. Briefly, suspended cells were incubated with a dose titration of test compound at RT for 60 min, lysed, and incubated with HTRF reagents for an additional 60 min. The plate was read using an Envision multilabel reader (Perkin Elmer) adjusted to read time resolved fluorescence and the cAMP concentrations were extrapolated from a cAMP calibration curve. […] The concentration of test compound required to stimulate a half-maximal response (EC50), and efficacy as compared to an internal agonist control, was determined from a sigmoidal 4-parameter curve fit of the resulting plot of normalized activity versus compound concentration.

| EC50 [nM] | Structure (SMILES) |
| --- | --- |
| 9.5 | CC(O)CS(=O)(=O)c1ccc(COC[C@@H]2C[C@@H]2C2CCN(C(=O)OC(C)(C)C)CC2)cc1 (some centres unmarked) [Example 94] |
| 0.4 | COc1cnc(N2CCC([C@H]3C[C@H]3COCc3ccc(S(C)(=O)=O)cc3)CC2)nc1 [Example 15, 5-methoxy-2-{4-[(1R,2R)-2-({[4-(methylsulfonyl)benzyl]oxy}methyl)cyclopropyl]piperidin-1-yl}pyrimidine] |
| 12 | O=S(=O)(c1ccc(COC[C@@H]2C[C@@H]2C2CCN(c3nc(C4CC4)no3)CC2)cc1)C1CC1 [Example 28, 1-(3-cyclopropyl-1,2,4-oxadiazol-5-yl)-4-[(1R,2R)-2-({[4-(cyclopropylsulfonyl)benzyl]oxy}methyl)cyclopropyl]piperidine] |
| 1.2 | CC(C)c1noc(N2CCC([C@H]3C[C@H]3COCc3ccc(CC(=O)N4CCOCC4)c(F)c3)CC2)n1 [Example 141, 2-(2-fluoro-4-((((1R,2R)-2-(1-(3-isopropyl-1,2,4-oxadiazol-5-yl)piperidin-4-yl)cyclopropyl)methoxy)methyl)phenyl)-1-morpholinoethanone] |
| 0.7 | CS(=O)(=O)c1ccc(COC[C@@H]2C[C@@H]2C2CCN(c3ncc(Cl)cn3)CC2)cc1 [Example 14, 5-chloro-2-{4-[(1R,2R)-2-({[4-(methylsulfonyl)benzyl]oxy}methyl)cyclopropyl]piperidin-1-yl}pyrimidine] |
| 2.5 | CCc1cnc(N2CCC([C@H]3C[C@H]3COCc3ccc(CCO)cc3)CC2)nc1 [Example 60, 2-{4-[({(1R,2R)-2-[1-(5-ethylpyrimidin-2-yl)piperidin-4-yl]cyclopropyl}methoxy)methyl]phenyl}ethanol] |
| 1 | CS(=O)(=O)c1ccc(COC[C@@H]2C[C@@H]2C2CCN(c3ncc(Br)cn3)CC2)nc1 [Example 4, 5-bromo-2-{4-[(1R,2R)-2-({[5-(methylsulfonyl)pyridin-2-yl]methoxy}methyl)cyclopropyl]piperidin-1-yl}pyrimidine] |
| 3.1 | CCS(=O)(=O)c1ccc(COC[C@@H]2C[C@@H]2C2CCN(c3nc(C(C)C)no3)CC2)cc1 [Example 26, 4-[(1R,2R)-2-({[4-(ethylsulfonyl)benzyl]oxy}methyl)cyclopropyl]-1-(3-isopropyl-1,2,4-oxadiazol-5-yl)piperidine] |
| 0.26 | CC(C)c1cnc(N2CCC([C@H]3C[C@H]3COCc3ccc(S(C)(=O)=O)cc3)CC2)nc1 [Example 23, 5-isopropyl-2-{4-[(1R,2R)-2-({[4-(methylsulfonyl)benzyl]oxy}methyl)cyclopropyl]piperidin-1-yl}pyrimidine] |
| 1.6 | CC(C)c1noc(N2CCC([C@H]3C[C@H]3COCc3ccc(CC(=O)N(C)C)cc3F)CC2)n1 [Example 137, 2-(3-fluoro-4-((((1R,2R)-2-(1-(3-isopropyl-1,2,4-oxadiazol-5-yl)piperidin-4-yl)cyclopropyl)methoxy)methyl)phenyl)-N,N-dimethylacetamide] |
| 7 | O=S(=O)(c1ccc(COC[C@@H]2C[C@@H]2C2CCN(c3nc(C4CCC4)no3)CC2)cc1)C1CC1 [Example 31, 1-(3-cyclobutyl-1,2,4-oxadiazol-5-yl)-4-[(1R,2R)-2-({[4-(cyclopropylsulfonyl)benzyl]oxy}methyl)cyclopropyl]piperidine] |
| 3.2 | CS(=O)(=O)c1ccc(COC[C@@H]2C[C@@H]2C2CCN(c3nc(C4CC4)no3)CC2)cc1 [Example 27, 1-(3-cyclopropyl-1,2,4-oxadiazol-5-yl)-4-[(1R,2R)-2-({[4-(methylsulfonyl)benzyl]oxy}methyl)cyclopropyl]piperidine] |

More lines, now with the values behind:

| Structure (SMILES) | EC50 [nM] |
| --- | --- |
| CC(C)(O)c1cnc(N2CCC([C@H]3C[C@H]3COCc3ccc(S(C)(=O)=O)cc3F)CC2)nc1 [Example 75, 2-(2-{4-[(1R,2R)-2-({[2-fluoro-4-(methylsulfonyl)benzyl]oxy}methyl)cyclopropyl]piperidin-1-yl}pyrimidin-5-yl)propan-2-ol] | 25 |
| CCc1cnc(N2CCC([C@H]3C[C@H]3COCc3ccc(-n4cnnn4)cn3)CC2)nc1 [Example 133, 2-(4-((1R,2R)-2-(((5-(1H-tetrazol-1-yl)pyridin-2-yl)methoxy)methyl)cyclopropyl)piperidin-1-yl)-5-ethylpyrimidine] | 5.6 |
| COCc1cnc(N2CCC([C@H]3C[C@H]3COCc3ccc(CC(=O)N(C)C)cc3F)CC2)nc1 [Example 147, 2-(3-fluoro-4-((((1R,2R)-2-(1-(5-(methoxymethyl)pyrimidin-2-yl)piperidin-4-yl)cyclopropyl)methoxy)methyl)phenyl)-N,N-dimethylacetamide] | 2.52 |
| CCc1cnc(N2CCC([C@H]3C[C@H]3COCc3ccc(-c4cncnc4)cc3F)CC2)nc1 [Example 108, 5-{4-[({(1R,2R)-2-[1-(5-ethylpyrimidin-2-yl)piperidin-4-yl]cyclopropyl}methoxy)methyl]-3-fluorophenyl}pyrimidine] | 1.1 |
| CS(=O)(=O)c1ccc(COC[C@@H]2C[C@@H]2C2CCN(c3ncc(C#N)cn3)CC2)c(F)c1 [Example 72] | 9.3 |
| CS(=O)(=O)c1ccc(COC[C@@H]2C[C@@H]2C2CCN(c3ncc(F)cn3)CC2)c(F)c1 [Example 69] | 2.4 |
| CCc1cnc(N2CCC([C@H]3C[C@H]3COCc3ccc(-c4cncnc4)cc3)CC2)nc1 [Example 120] | 1.9 |
| CCc1cnc(N2CCC([C@H]3C[C@H]3[C@@H](COC)OCc3ccc(S(=O)(=O)CC)cc3)CC2)nc1 [Example 67] | 0.16 |
| CCc1cnc(N2CCC([C@H]3C[C@H]3COCc3ccc(-n4cnnn4)cc3)CC2)nc1 [Example 61, 5-ethyl-2-{4-[(1R,2R)-2-({[4-(1H-tetrazol-1-yl)benzyl]oxy}methyl)cyclopropyl]piperidin-1-yl}pyrimidine] | 0.07 |
| O=S(=O)(CCO)c1ccc(COC[C@@H]2C[C@@H]2C2CCN(c3ncc(Br)cn3)CC2)c(F)c1 [Example 81] | 1.7 |
| CCc1cnc(N2CCC([C@H]3C[C@H]3COCc3ccc(-c4ccnnc4)c(F)c3)CC2)nc1 [Example 115, 4-{4-[({(1R,2R)-2-[1-(5-ethylpyrimidin-2-yl)piperidin-4-yl]cyclopropyl}methoxy)methyl]-2-fluorophenyl}pyridazine] | 1 |
| COC(C)c1cnc(N2CCC([C@H]3C[C@H]3COCc3ccc(S(C)(=O)=O)cc3F)CC2)nc1 (single isomer, unassigned) [Example 126] | 1.5 |
| CC(O)CS(=O)(=O)c1ccc(COC[C@@H]2C[C@@H]2C2CCN(c3ncc(F)cn3)CC2)c(F)c1 (stereo partly drawn) [Example 96, 1-({4-[({(1R,2R)-2-[1-(5-fluoropyrimidin-2-yl)piperidin-4-yl]cyclopropyl}methoxy)methyl]-3-fluorophenyl}sulfonyl)propan-2-ol] | 21.9 |
| CCc1cnc(N2CCC([C@H]3C[C@H]3COCc3ccc(-c4cnc(N)nc4)cc3F)CC2)nc1 [Example 103, 5-{4-[({(1R,2R)-2-[1-(5-ethylpyrimidin-2-yl)piperidin-4-yl]cyclopropyl}methoxy)methyl]-3-fluorophenyl}pyrimidin-2-amine] | 2.5 |
